These results are taken from US7090861B2, “Sustained release delivery systems for solutes” (Farrington Pharmaceuticals, LLC, priority 2000, dated 2006).

Like-named read-outs stand apart in the source and are kept apart here.

The conditions of data set [1]: cited from earlier work.
Data set [2] is described as follows: Cumulative release of albumin from a controlled-release device. It counts as physicochemical. The method, then:
Bovine serum albumin (MW 68,000) was dissolved in phosphate buffered saline and loaded into a device designed to deliver a loading dose. After an initial burst release, the rate becomes constant. Data are plotted as the cumulated delivery of albumin over time, measured as described for FIG. 5. Approximately 10 mg was delivered in 24 hours.

In the case of `[Ca+2]` [calcium], the “absorption, share of the total” value in data set [1] (ileum) was 60%; in data set [1] (jejunum), 20%; in data set [1] (stomach), below 2%.
“Bovine serum albumin: Bovine serum albumin (MW 68,000) in phosphate buffered saline, loaded into a device designed to deliver a loading dose”: the “release kinetics of albumin” value in data set [2] (after an initial burst release) is recorded as “zero order rate release of albumin over a duration of 24 hours”. Also, the “cumulated delivery of albumin” value in data set [2] (in 24 hours, device designed to deliver a loading dose) was “Approximately 10 mg”.
